Test results: PubChem BioAssay (NCI)
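Dose response: 5 concentrations. Exposure: 48 h. Format: 96-well plates. Endpoint: linear interpolation; highest concentration if not reached. GI50 marks 50% less growth. The concentration for full growth arrest is given as TGI.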

How the values were obtained:
Test in all cases: NCI anticancer screen, dose series, 48 h
UO-31 renal = system: UO-31 renal
RXF 393 renal = system: RXF 393 renal
PC-3 prostate = system: PC-3 prostate
HOP-62 NSCLC = system: HOP-62 NSCLC
SK-MEL-28 melanoma = system: SK-MEL-28 melanoma
MCF7 breast = system: MCF7 breast
SR leukemia = system: SR leukemia
DU-145 prostate = system: DU-145 prostate
SF-268 CNS = system: SF-268 CNS
COLO 205 colon = system: COLO 205 colon
IGROV1 ovarian = system: IGROV1 ovarian
NCI/ADR-RES ovarian = system: NCI/ADR-RES ovarian
TK-10 renal = system: TK-10 renal
SF-295 CNS = system: SF-295 CNS
SK-OV-3 ovarian = system: SK-OV-3 ovarian
HCC-2998 colon = system: HCC-2998 colon
SF-539 CNS = system: SF-539 CNS
SN12C renal = system: SN12C renal
CAKI-1 renal = system: CAKI-1 renal
MALME-3M melanoma = system: MALME-3M melanoma
UACC-257 melanoma = system: UACC-257 melanoma
NCI-H460 lung = system: NCI-H460 lung
K-562 leukemia = system: K-562 leukemia
UACC-62 melanoma = system: UACC-62 melanoma
HOP-92 NSCLC = system: HOP-92 NSCLC
MDA-MB-435 = system: MDA-MB-435
SK-MEL-2 melanoma = system: SK-MEL-2 melanoma
HCT-15 colon = system: HCT-15 colon
A498 renal = system: A498 renal
NCI-H522 lung = system: NCI-H522 lung
RPMI-8226 leukemia = system: RPMI-8226 leukemia
HCT-116 colon = system: HCT-116 colon
SNB-75 CNS = system: SNB-75 CNS
LOX IMVI melanoma = system: LOX IMVI melanoma
SNB-19 CNS = system: SNB-19 CNS
MDA-MB-231 breast = system: MDA-MB-231 breast
OVCAR-8 ovarian = system: OVCAR-8 ovarian
A549 NSCLC = system: A549 NSCLC
CCRF-CEM leukemia = system: CCRF-CEM leukemia
ACHN renal = system: ACHN renal
OVCAR-5 ovarian = system: OVCAR-5 ovarian
HT29 colon = system: HT29 colon
OVCAR-3 ovarian = system: OVCAR-3 ovarian
EKVX NSCLC = system: EKVX NSCLC
T-47D breast = system: T-47D breast
NCI-H226 lung = system: NCI-H226 lung
OVCAR-4 ovarian = system: OVCAR-4 ovarian
HL-60(TB) leukemia = system: HL-60(TB) leukemia
NCI-H23 lung = system: NCI-H23 lung
KM12 colon = system: KM12 colon
SW-620 colon = system: SW-620 colon
M14 melanoma = system: M14 melanoma
MOLT-4 leukemia = system: MOLT-4 leukemia
SK-MEL-5 melanoma = system: SK-MEL-5 melanoma
786-0 renal = system: 786-0 renal
U251 CNS = system: U251 CNS

In the case of `COc1cc(C2CC(c3ccc(SC)cc3)=NN2C(C)=O)cc(OC)c1OC` (configuration not stated), the GI50 (UO-31 renal) is reported as 15.9 µM, the TGI (UO-31 renal) is reported as 77.4 µM and the GI50 (RXF 393 renal) is reported as 13.2 µM. It also gave a TGI (RXF 393 renal) of 43.6 µM, a GI50 (PC-3 prostate) of 16.2 µM and a TGI (PC-3 prostate) greater than 100 µM. The GI50 (HOP-62 NSCLC) was 16.1 µM, the TGI (HOP-62 NSCLC) was 66.3 µM and the GI50 (SK-MEL-28 melanoma) was 16.6 µM. It also gave a TGI (SK-MEL-28 melanoma) greater than 100 µM, a GI50 (MCF7 breast) of 4.47 µM and a TGI (MCF7 breast) of 77.5 µM. The GI50 (SR leukemia) was 1.94 µM, the TGI (SR leukemia) was 14.2 µM and the GI50 (DU-145 prostate) was 16.5 µM. The TGI (DU-145 prostate) was 50.6 µM, the GI50 (SF-268 CNS) was 11.9 µM and the TGI (SF-268 CNS) was greater than 100 µM. The GI50 (COLO 205 colon) was 5.38 µM, the TGI (COLO 205 colon) was 21.6 µM and the GI50 (IGROV1 ovarian) was 6.38 µM. For the same compound, the TGI (IGROV1 ovarian) was greater than 100 µM, the GI50 (NCI/ADR-RES ovarian) was 7.56 µM and the TGI (NCI/ADR-RES ovarian) was greater than 100 µM. For the same compound, the GI50 (TK-10 renal) was 22.9 µM, the TGI (TK-10 renal) was 78.1 µM and the GI50 (SF-295 CNS) was 1.23 µM. It also gave a TGI (SF-295 CNS) of 4.64 µM, a GI50 (SK-OV-3 ovarian) of 17.1 µM and a TGI (SK-OV-3 ovarian) of 95.9 µM. It also gave a GI50 (HCC-2998 colon) of 12.1 µM, a TGI (HCC-2998 colon) of 38.7 µM and a GI50 (SF-539 CNS) of 10 µM. The TGI (SF-539 CNS) was 38 µM, the GI50 (SN12C renal) was 28.5 µM and the TGI (SN12C renal) was greater than 100 µM. The GI50 (CAKI-1 renal) was 7.11 µM, the TGI (CAKI-1 renal) was 70 µM and the GI50 (MALME-3M melanoma) was 53.6 µM. The TGI (MALME-3M melanoma) was greater than 100 µM, the GI50 (UACC-257 melanoma) was 42 µM and the TGI (UACC-257 melanoma) was greater than 100 µM. For the same compound, the GI50 (NCI-H460 lung) was 4.14 µM, the TGI (NCI-H460 lung) was 16.9 µM and the GI50 (K-562 leukemia) was 3.47 µM. The TGI (K-562 leukemia) was 20.8 µM, the GI50 (UACC-62 melanoma) was 9.86 µM and the TGI (UACC-62 melanoma) was greater than 100 µM. For the same compound, the GI50 (HOP-92 NSCLC) was 16 µM, the TGI (HOP-92 NSCLC) was 97.1 µM and the GI50 (MDA-MB-435) was 1.95 µM. For the same compound, the TGI (MDA-MB-435) was 5.55 µM, the GI50 (SK-MEL-2 melanoma) was 10.5 µM and the TGI (SK-MEL-2 melanoma) was 60.3 µM. For the same compound, the GI50 (HCT-15 colon) was 5.09 µM, the TGI (HCT-15 colon) was greater than 100 µM and the GI50 (A498 renal) was 12.6 µM. The TGI (A498 renal) was 49.3 µM, the GI50 (NCI-H522 lung) was 23.8 µM and the TGI (NCI-H522 lung) was greater than 100 µM. The GI50 (RPMI-8226 leukemia) was 6.51 µM, the TGI (RPMI-8226 leukemia) was 96 µM and the GI50 (HCT-116 colon) was 4.28 µM. It also gave a TGI (HCT-116 colon) of 21 µM, a GI50 (SNB-75 CNS) of 4.99 µM and a TGI (SNB-75 CNS) of 50.9 µM. For the same compound, the GI50 (LOX IMVI melanoma) was 7.1 µM, the TGI (LOX IMVI melanoma) was greater than 100 µM and the GI50 (SNB-19 CNS) was 7.04 µM. For the same compound, the TGI (SNB-19 CNS) was greater than 100 µM, the GI50 (MDA-MB-231 breast) was 20.1 µM and the TGI (MDA-MB-231 breast) was greater than 100 µM. The GI50 (OVCAR-8 ovarian) was 25.2 µM, the TGI (OVCAR-8 ovarian) was greater than 100 µM and the GI50 (A549 NSCLC) was 9.63 µM. For the same compound, the TGI (A549 NSCLC) was greater than 100 µM, the GI50 (CCRF-CEM leukemia) was 9.49 µM and the TGI (CCRF-CEM leukemia) was greater than 100 µM. The GI50 (ACHN renal) was 18.2 µM, the TGI (ACHN renal) was greater than 100 µM and the GI50 (OVCAR-5 ovarian) was 44.5 µM. The TGI (OVCAR-5 ovarian) was greater than 100 µM, the GI50 (HT29 colon) was 4.2 µM and the TGI (HT29 colon) was greater than 100 µM. It also gave a GI50 (OVCAR-3 ovarian) of 3.76 µM, a TGI (OVCAR-3 ovarian) of 22.8 µM and a GI50 (EKVX NSCLC) of 17.7 µM. It also gave a TGI (EKVX NSCLC) greater than 100 µM, a GI50 (T-47D breast) of 8.9 µM and a TGI (T-47D breast) greater than 100 µM. It also gave a GI50 (NCI-H226 lung) of 19.8 µM, a TGI (NCI-H226 lung) of 45.6 µM and a GI50 (OVCAR-4 ovarian) of 34.2 µM. For the same compound, the TGI (OVCAR-4 ovarian) was greater than 100 µM, the GI50 (HL-60(TB) leukemia) was 2.68 µM and the TGI (HL-60(TB) leukemia) was 12.1 µM. It also gave a GI50 (NCI-H23 lung) of 24.3 µM, a TGI (NCI-H23 lung) greater than 100 µM and a GI50 (KM12 colon) of 3.89 µM. The TGI (KM12 colon) was 44.9 µM, the GI50 (SW-620 colon) was 4.49 µM and the TGI (SW-620 colon) was greater than 100 µM. For the same compound, the GI50 (M14 melanoma) was 3.91 µM, the TGI (M14 melanoma) was 38.4 µM and the GI50 (MOLT-4 leukemia) was 5.2 µM. It also gave a TGI (MOLT-4 leukemia) greater than 100 µM, a GI50 (SK-MEL-5 melanoma) of 4.04 µM and a TGI (SK-MEL-5 melanoma) of 16.1 µM. The GI50 (786-0 renal) was 14.1 µM, the TGI (786-0 renal) was 70.4 µM and the GI50 (U251 CNS) was 7.27 µM. The TGI (U251 CNS) was greater than 100 µM.
